The values below come from publication PMC9110766, “Structure-Based Design of 2-Aminopurine Derivatives as CDK2 Inhibitors for Triple-Negative Breast Cancer” (Frontiers in Pharmacology, 2022).

Like-named read-outs stand apart in the source and are kept apart here.

The test system of data set [1] is CDK2/A. To be noted: cited from earlier work.
In data set [2] the target is CDK2/cyclin A (Homo sapiens, UniProt P24941). Briefly: CDK2 inhibition, Kinase-Glo Luminescent Kinase Assay. Type of data set: biochemical. To be noted: for IC50: geometric means of n ⩾ 3 experiments, 10 µM ATP, read-out: IC50 against CDK2. How it is done: The IC50 values were calculated using Prism GraphPad software.
Data set [3] deals with CDK1/B. To be noted: cited from earlier work.
Data set [4] concerns the target CDK6/cyclin D3 (Homo sapiens, UniProt Q00534). The data set can be described thus: CDK6 inhibition, Kinase-Glo Luminescent Kinase Assay. It counts as biochemical. To be noted: for selectivity for CDK2 over CDK6: ratio of IC50 values. How it is done: (§1) Experiments were carried out using the Kinase-Glo® Luminescent Kinase Assays as described previously ([Kashem et al., 2007]). Briefly, all enzymatic reactions were conducted at 30°C for 40 min. The 50 µl reaction mixture contains 40 mM Tris, pH 7.4, 10 mM MgCl2, 0.1 mg/ml BSA, 1 mM DTT, 10 µM ATP, 0.2 μg/ml CDKs, and 100 μM lipid substrate. The compounds were diluted with 10% DMSO and then 5 µl of the dilution was removed and put into the subsequent reaction. The kinase activities were measured by detecting the content of remaining ATP. The luminescent signal was correlated with the amount of residual ATP and negatively correlated with the amount of kinase activity. The IC50 values were calculated using Prism GraphPad software.

Data set [5] deals with MDA-MB-231 cells. Briefly: Cell cycle analysis (PI staining, flow cytometry). To be noted: 20 μM, 24 h, compared with negative control group. Type of data set: cell-based, human. As for the experimental part:
MDA-MB-231 cells were seeded in six-well plates and incubated with 20 μM compounds 11c, 11l, 11p, and vehicle (0.2% DMSO) for 24 h. Subsequently, cells were centrifugated and washed with cold PBS buffer. After the centrifugation, the supernatants were removed, and the cells were resuspended in PBS buffer. Then, 10 μl of PI were added and the cells were incubated in the dark for 15 min at room temperature. The stained cells were analyzed by a flow cytometer (BD Accuri C6).

Data set [6] has as its target CDK1/cyclin B (Homo sapiens, UniProt P06493). Briefly: CDK1 inhibition, Kinase-Glo Luminescent Kinase Assay. It counts as biochemical. To be noted: for selectivity for CDK2 over CDK1: ratio of IC50 values. As for the experimental part: as §1
The nature of data set [7]: Cytotoxicity (MTT) in human embryonic kidney cells. Type of data set: cell-based. To be noted: 293T cells. How it is done: Standard MTT (thiazolyl blue; 3-[4,5-dimethylthiazol-2-yl]-2,5-diphenyltetrazolium bromide) assays were performed as 5 mg/ml. Briefly, MDA-MB-231 or 293T cells were seeded into 96-well plates and incubated for 24 h at 37°C. All compounds were dissolved in DMSO, and a gradient dilution series were prepared in 100 μl of cell medium, added to cells (in triplicates), and incubated for 48 h at 37°C with 5% CO2. MTT was added (5 mg/ml, 20 μl) to each plate and these mixtures were incubated for another 4 h. Then, the medium was removed, and the mixture was completely dissolved in DMSO (200 μL) after shaking for 10 min.

Data set [8] has as its system MDA-MB-231 cells. Briefly: Anti-proliferation test (MTT). To be noted: Homo sapiens, 48 h. It counts as cell-based.
Data set [9] has as its target CDK8/cyclin C (Homo sapiens, UniProt P49336). The data set can be described thus: CDK8 inhibition, Kinase-Glo Luminescent Kinase Assay. It counts as biochemical. To be noted: for selectivity for CDK2 over CDK8: CDK8 inhibition <20% @ 5 μM; for CDK8/cyclin C Inhibition rate @5 μM (%) / inhibition at 5 µM: compound at 5 μM; for inhibition at 5 µM: read-out: CDK8/cyclin C Inhibition rate @5 μM (%). As for the experimental part: as §1

The subject of data set [10] is CDK6/D2. Also noted: method as in Fry et al., 2004. To be noted: ref Fry et al., 2004; cited from earlier work.
In data set [11] the test system is CDK4/D3. Also noted: method as in Fry et al., 2004. To be noted: ref Fry et al., 2004; cited from earlier work.
Data set [12] concerns CDK4/D1. The arrangement: method as in Fry et al., 2004. To be noted: ref Fry et al., 2004; cited from earlier work.

Chain of CDK6/cyclin D3 (Q00534 whole entry): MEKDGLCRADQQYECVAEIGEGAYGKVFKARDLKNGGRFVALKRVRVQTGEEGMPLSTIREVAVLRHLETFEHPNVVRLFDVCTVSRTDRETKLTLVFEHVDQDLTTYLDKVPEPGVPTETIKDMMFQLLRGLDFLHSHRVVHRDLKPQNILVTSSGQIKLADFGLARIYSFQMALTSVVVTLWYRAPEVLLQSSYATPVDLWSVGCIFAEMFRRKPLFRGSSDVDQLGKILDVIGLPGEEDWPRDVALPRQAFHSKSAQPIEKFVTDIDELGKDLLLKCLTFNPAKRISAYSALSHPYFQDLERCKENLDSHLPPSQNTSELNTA
Chain of CDK6/cyclin D3 (P30281 whole entry partner): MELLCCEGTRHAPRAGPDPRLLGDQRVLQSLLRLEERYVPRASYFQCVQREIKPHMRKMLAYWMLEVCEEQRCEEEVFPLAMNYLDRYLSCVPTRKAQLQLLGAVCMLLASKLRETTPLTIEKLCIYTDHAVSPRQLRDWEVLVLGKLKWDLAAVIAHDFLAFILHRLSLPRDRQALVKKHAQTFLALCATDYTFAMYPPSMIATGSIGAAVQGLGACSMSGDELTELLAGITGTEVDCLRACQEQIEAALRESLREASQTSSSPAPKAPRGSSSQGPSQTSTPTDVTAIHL
Chain of CDK8/cyclin C (P49336 whole entry): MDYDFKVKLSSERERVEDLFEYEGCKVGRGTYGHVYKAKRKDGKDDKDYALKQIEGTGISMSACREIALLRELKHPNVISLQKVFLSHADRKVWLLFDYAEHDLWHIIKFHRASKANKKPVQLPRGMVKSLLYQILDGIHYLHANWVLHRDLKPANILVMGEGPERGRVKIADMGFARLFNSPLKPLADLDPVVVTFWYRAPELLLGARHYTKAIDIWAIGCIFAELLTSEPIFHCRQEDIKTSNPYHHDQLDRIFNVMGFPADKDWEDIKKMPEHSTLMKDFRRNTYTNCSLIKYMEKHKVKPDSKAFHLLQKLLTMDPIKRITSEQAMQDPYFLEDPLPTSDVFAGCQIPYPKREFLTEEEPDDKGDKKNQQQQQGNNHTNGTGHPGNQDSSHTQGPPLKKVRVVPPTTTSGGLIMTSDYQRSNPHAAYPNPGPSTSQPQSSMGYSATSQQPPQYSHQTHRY
Chain of CDK8/cyclin C (P24863 whole entry partner): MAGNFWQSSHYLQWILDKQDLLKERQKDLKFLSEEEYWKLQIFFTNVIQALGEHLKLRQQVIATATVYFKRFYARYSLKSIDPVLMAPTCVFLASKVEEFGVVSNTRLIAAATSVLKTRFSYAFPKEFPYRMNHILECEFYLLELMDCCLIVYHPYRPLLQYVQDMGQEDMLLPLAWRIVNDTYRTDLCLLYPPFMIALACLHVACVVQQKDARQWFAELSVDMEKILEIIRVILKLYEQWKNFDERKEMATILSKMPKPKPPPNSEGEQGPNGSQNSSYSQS
Chain of CDK1/cyclin B (P06493 whole entry): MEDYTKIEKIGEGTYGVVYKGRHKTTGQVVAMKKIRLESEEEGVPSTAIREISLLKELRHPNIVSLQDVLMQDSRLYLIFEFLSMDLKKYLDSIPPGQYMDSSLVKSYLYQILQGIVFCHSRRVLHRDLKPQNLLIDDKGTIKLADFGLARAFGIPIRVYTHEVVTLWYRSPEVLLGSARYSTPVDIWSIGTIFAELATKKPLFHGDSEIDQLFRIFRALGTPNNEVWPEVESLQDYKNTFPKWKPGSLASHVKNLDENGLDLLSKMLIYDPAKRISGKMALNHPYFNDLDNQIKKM
Chain of CDK1/cyclin B (P14635 whole entry partner): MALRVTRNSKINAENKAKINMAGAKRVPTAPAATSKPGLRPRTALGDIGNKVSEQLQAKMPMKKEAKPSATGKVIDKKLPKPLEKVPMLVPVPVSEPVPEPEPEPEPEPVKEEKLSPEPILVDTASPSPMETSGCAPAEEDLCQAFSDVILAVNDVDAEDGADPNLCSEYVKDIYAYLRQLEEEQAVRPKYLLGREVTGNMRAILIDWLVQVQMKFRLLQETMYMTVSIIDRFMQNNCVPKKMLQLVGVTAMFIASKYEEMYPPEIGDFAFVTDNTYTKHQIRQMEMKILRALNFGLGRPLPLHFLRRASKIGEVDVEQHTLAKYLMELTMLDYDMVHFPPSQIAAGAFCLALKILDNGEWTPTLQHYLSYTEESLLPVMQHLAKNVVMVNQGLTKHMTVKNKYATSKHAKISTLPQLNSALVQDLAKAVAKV

As for `Cl.Nc1cccc(-c2nc(Nc3cccc([N+](=O)[O-])c3)nc3[nH]cnc23)c1` [Compound 11a, 6-(3-aminophenyl)-N-(3-nitrophenyl)-9H-purin-2-amine hydrochloride], the melting point was > 300 °C. The IC50 in [1] (ref Wang et al., 2013) is 23 nM. In data set [2], the IC50 was found to be 310 ± 20 nM. The IC50 in [3] (ref Wang et al., 2013) was 350 nM.

Consider `Cl.NCc1cccc(-c2nc(Nc3ccc(S(N)(=O)=O)cc3)nc3[nH]cnc23)c1` [Compound 11l, 4-((6-(3-(aminomethyl)phenyl)-9H-purin-2-yl)amino)benzenesulfonamide hydrochloride], for which, in [4], the IC50 turned out to be 2700 ± 500 nM and the “selectivity for CDK2 over CDK6” value is “more than 140 fold”. In addition, the “effect on cell cycle (percentage of cells in G2/M phase)” value in data set [5] is “increased the percentage of cells in the G2/M phase”. Also, the IC50 in data set [2] was 19 ± 1 nM. In data set [6], the IC50 was determined as 120 ± 20 nM and the “selectivity for CDK2 over CDK1” value is 4.6 to 6.3 fold. Moreover, in data set [7], the IC50 at 48 h is > 100000 nM. For the same compound, the IC50 in data set [8] fell in the range of 8110 to 15700 nM. In addition, in data set [9], the “selectivity for CDK2 over CDK8” value is reported as “more than 140 fold”, the “CDK8/cyclin C Inhibition rate @5 μM (%)” value came to 11% and the inhibition at 5 µM is < 20%.

In the case of `CC(=O)c1c(C)c2cnc(Nc3ccc(N4CCNCC4)cn3)nc2n(C2CCCC2)c1=O` [Palbociclib], the IC50 in data set [10] is 15 nM; in data set [11], […]; in data set [12], […].

With `CNS(=O)(=O)c1ccc(Nc2nc(-c3cccc(CN)c3)c3nc[nH]c3n2)cc1.Cl` [Compound 11p, 4-((6-(3-(aminomethyl)phenyl)-9H-purin-2-yl)amino)-N-methylbenzenesulfonamide hydrochloride], the melting point is > 300 °C. For the same compound, in [4], half-maximal inhibition (IC50) was put at 4800 ± 100 nM and the “selectivity for CDK2 over CDK6” value is recorded as “more than 140 fold”. Moreover, in data set [5], the “effect on cell cycle (percentage of cells in G2/M phase)” value was “increased the percentage of cells in the G2/M phase”. In addition, the IC50 in data set [2] worked out at 32 ± 1 nM. In [6], the IC50 worked out at 150 ± 20 nM and the “selectivity for CDK2 over CDK1” value is reported as 4.6 to 6.3 fold. The IC50 in data set [8] lay in the range of 8110 to 15700 nM. Also, in data set [9], the “selectivity for CDK2 over CDK8” value is given as “more than 140 fold”, the “CDK8/cyclin C Inhibition rate @5 μM (%)” value came out at 15% and the inhibition at 5 µM was < 20%.

`Cl.NCc1cccc(-c2nc(Nc3cccc([N+](=O)[O-])c3)nc3[nH]cnc23)c1` [Compound 11c, 6-(3-(aminomethyl)phenyl)-N-(3-nitrophenyl)-9H-purin-2-amine hydrochloride] yielded a melting point of 236 to 238 °C. Moreover, in [4], half-maximal inhibition (IC50) was put at 2200 ± 100 nM and the “selectivity for CDK2 over CDK6” value was determined as 18 fold. Also, in data set [5], the “effect on cell cycle (percentage of cells in G2/M phase)” value was “increased the percentage of cells in the G2/M phase”. Further, the IC50 in data set [2] stood at 110 ± 10 nM. In data set [6], half-maximal inhibition (IC50) required 240 ± 40 nM and the “selectivity for CDK2 over CDK1” value came to 2 fold. For the same compound, in [8], the IC50 lay within 8110 to 15700 nM. In data set [9], the “selectivity for CDK2 over CDK8” value was “more than 42 fold”, the “CDK8/cyclin C Inhibition rate @5 μM (%)” value stood at 19% and the inhibition at 5 µM was < 20%.

With `NS(=O)(=O)c1ccc(Nc2nc(-c3cccc(-c4ccccc4)c3)c3nc[nH]c3n2)cc1` [compound 73, reference compound], the IC50 in [1] (ref Coxon et al., 2017) was 44 nM; in data set [3] (ref Coxon et al., 2017), 86000 nM.

In the case of `O=[N+]([O-])c1cccc(Nc2nc(-c3ccc4c(c3)OCO4)c3nc[nH]c3n2)c1` [Compound 5d, 6-(benzo[d][1,3]dioxol-5-yl)-N-(3-nitrophenyl)-9H-purin-2-amine], the melting point is 260 °C (dec.). Further, in data set [2] (read-out: inhibition rate (%) @0.5 μM against CDK2, compound at 0.5 μM), the inhibition at 0.5 µM was determined as 7%. Also, the “CDK2 inhibitory activity (in words)” value in data set [2] (screened at 0.5 μM) is reported as “weak activity”.
